# Data published in patent US20130023491A1, “BETA-CELL REPLICATION PROMOTING COMPOUNDS AND METHODS OF THEIR USE” (President and Fellows of Harvard College, priority 2009, published 2013).
# Columns and labels:
# β-cells [1] = assay: β-cell replication by phosphohistone-H3 (PH3) and PDX-1 co-expression; format: cell-based, rat; settings: A10 2 μM, B8 15 μM
# Procedure: Rat islets were isolated as previously described in Gotoh M, Maki T, Kiyoizumi T, Satomi S, Monaco A P: An improved method for isolation of mouse pancreatic islets. Transplantation 40:437-438, 1985, contents of which are herein incorporated by reference in their entirety. Isolated islets were cultured overnight in a tissue culture incubator. The following morning, islets were trypsinized into cellular clusters of 1-3 cells, re-suspended in islet media (Mediatech 99-786-CV; 10% FBS serum (Valley Biomedial BS3033); 8.3 mM Glucose (Sigma G7528); 1× Penicillin/Streptomycin (Invitrogen 15070-063); 1× Glutamax (Invitrogen 35050-079)) and plated into the wells of a 96-well plate (Sigma CLS3904) that had been coated with 804G (a rat bladder carcinoma cell line) conditioned media. The cellular plating density was 60 k cells/well and greater than 95% viability was confirmed at the time of plating. The islet cells were allowed 48-hours to adhere at which time the media was changed (Mediatech 99-786-CV 2% serum, 5 mM glucose, 1× pen/strep, 1× glutamax) and the cells were treated with the test compounds. For screening, compounds were tested at 1 uM concentration in duplicate. After 24-hours of compound treatment, cells were fixed with fresh 4% PFA (Electron Microscopy Services 15710) for 20 minutes and washed with PBS (VWR 45000-446). […]
# β-cells [2] = assay: quantification of β-cell number (PDX-1+ cell count); format: cell-based, rat; settings: day 6 (144 h), 5-IT 2 μM, 15 mM glucose; control wells 20%
# Procedure: To quantify the number of β-cells at 0 h, 96 h and 144 h of culture, cells were plated in 96-well plates as above in the presence of vehicle only or 5-IT and 15 mM glucose; final DMSO dilution was 1:1000 in all wells. Time Oh was after cells had been allowed 48 h to adhere. Each condition was represented by 16 separate wells per plate to accommodate small fluctuations in plating density. Media changes were performed every 48 h. Cells were fixed at the appropriate time point and stored to be stained simultaneously for PDX-1. Automated cell counting was performed using the Cellomics ArrayScanVTI which identified PDX-1^+ cells.
smiles,measurement,setting,value
"Nc1ncnc2c1c(I)cn2[C@@H]1O[C@H](CO)[C@@H](O)[C@H]1O [A10, 5-iodotubercidin]",ratio of PH3 over PDX-1 relative to control DMSO treatment,β-cells [1],increased
same,increase in number of β-cells compared to time 0,β-cells [2],40%
